Entries after “also recorded” stand apart in the source; their conditions may differ. Read-outs that look alike come from different tables or passages of the source.
Legend:
HepG2 cells [1] = test: MTT cell viability assay, HepG2; assay type: cell-based; settings: 5-200 µg/mL, 24 h (LuG also 48 and 72 h)
Protocol: (§1) According to the biodistribution results of Lu and LuG in the previous step, three cell lines were selected for further analysis. HUVEC cell line (an endothelial cell that was isolated from the umbilical cord vein) as a normal cell, SW480 as a colorectal cancer cell line, and HepG2 as a hepatocellular carcinoma cell line were obtained from the cell bank of Roshd Azma Company. They were cultured in Dulbecco’s Modified Eagle Medium (DMEM) supplemented with FBS 10% (Fetal Bovine Serum) and Pen/Sterp 10^4 U/mL (Penicillin- Streptomycin) at 37°C and 5% carbon dioxide (CO2). Then, 10^5 cells/mL were seeded in 96-well cell culture plates and incubated for 24 h.
(§2) After 24 h, the cell lines were treated with Lu and LuG (5, 10, 25, 50, 75, 100, 200 µg/mL). The cytotoxicity effect of Lu and LuG was measured using the MTT (3-[4,5-dimethylthiazol-2-yl]- 2,5-diphenyltetrazolium bromide) assay for 24 h. Next, 20 μL of MTT solution (5 mg/mL) was added to each well, and the complexes were incubated at 37°C for 4 hours. Afterward, the culture medium was removed and replaced with DMSO 200 μL). The absorbance of each well was determined at 570 nm using an ELISA reader, and the cell viability percentage was calculated relative to the control group.

HUVEC cells = test: MTT cell viability assay, HUVEC normal cells; assay type: cell-based; settings: 5-200 µg/mL, 24 h
Protocol: as §1, §2

HepG2 cells [2] = settings: cited from earlier work
[3] = Biodistribution of 99mTc-radiolabeled flavonoids, organ radioactivity after SPECT imaging; parameters: species or system Wistar-Albino rats; settings: rat, in vivo
Protocol: Five milligrams of tin chloride (SnCl2) was dissolved in 1 mL of hydrochloric acid 10% and diluted with 3 mL of distilled water, and the pH was adjusted to 7. Then, 1 mg of Lu and LuG and about 4 mCi of fresh pertechnetate (^99mTcO4) in 2 mL of NaCl were added to the complex. Afterward, it was incubated at room temperature for 20 minutes.
An intraperitoneal injection of a ketamine and xylazine mixture anesthetized the Wistar-Albino rats. About 1.4 mCi of flavonoid-^99mTc complex (^99mTc-Lu and ^99mTc-LuG) was injected through the tail vein. The imaging was performed using SPECT (Single-Photon Emission Computed Tomography) at 0, 5, 15, 30, 60, and 90 min. Then, the animals were sacrificed in accordance with all ethical considerations, and each organ was carefully separated. The percentage of radioactivity in each organ was calculated by dividing the activity counted by the dose calibrator by the total radioactivity. This method ensured accurate assessment of the biodistribution of the radiolabeled compounds within the various organs.
Organ accumulation of ^99mTc−Lu/^99mTc−LuG (%)=(Amount of radioactivity counted in each organ/Amount of radioactivity counted in whole body)×100

HepG2 cells [4] = test: Cell cycle analysis by PI flow cytometry; assay type: cell-based
Protocol: HepG2 cells were seeded in 6-well plates and treated with various concentrations of Luteolin-7-O-glucoside for 24 h. After treatment, the cells were fixed in a solution of ethanol: water (7:3) at -20 °C. Then, ethanol-fixed cells were washed with PBS and incubated with RNase A (100 μL) for 30 min. Following the RNase treatment, the cells were incubated in a PI/Triton X-100 solution for an additional 30 minutes. The samples were analyzed using a flow cytometer (FACSCalibur), and the data were assessed with FlowJo version 10. Finally, the G0/G1 phase (2N DNA content), S phase (intermediate DNA content), and G2/M phase (4N DNA content) were calculated.[13]

HepG2 cells [5] = test system: HepG2 cells; parameters: method as in PMID 32129972; settings: cited from earlier work
HepG2 cells [6] = test system: HepG2 cells; parameters: method as in PMID 24257119; settings: 24 h treatment; cited from earlier work
SW480 cells = test: MTT cell viability assay, SW480; assay type: cell-based; settings: 5-200 µg/mL, 24 h
Protocol: as §1, §2

HepG2 cells [7] = test: Annexin V-FITC/PI flow cytometry for apoptosis/necrosis; assay type: cell-based; settings: HepG2, 5, 30, 50 µg/mL
Protocol: According to the results of the previous steps, LuG was selected for flow cytometry testing on the HepG2 cancer cell line. […] HepG2 cells were treated with LuG (5, 30, 50 µg/mL) for 48 h and then washed with PBS. Next, 300 µL of binding buffer was added to 1 × 10^6 cells and incubated for 15 min at 25°C in away from the light with 4 µL of FITC Annexin V and 2 µL of PI. To investigate apoptotic or necrotic pathways, data were analyzed by FlowJo software. […] Additionally, cells without any treatment (negative control) and those treated with LuG (positive control) were designated as “Auto” and “Unstained”, respectively.

[8] = listed as luteolin-7-O-glucoside

O=c1cc(-c2ccc(O)c(O)c2)oc2cc(O[C@@H]3O[C@H](CO)[C@@H](O)[C@H](O)[C@H]3O)cc(O)c12 [LuG, luteolin-7-O-glucoside]
cytotoxicity on HepG2 cells (in words) (HepG2 cells [1]): significant cytotoxicity | cytotoxicity on HepG2 cells (in words) (HepG2 cells [1]; [8]): highest cytotoxic effect; also recorded: effectively inhibits HepG2 cell viability | cytotoxicity on normal HUVEC cells (in words) (HUVEC cells): negligible toxicity; also recorded: did not demonstrate any cytotoxicity | apoptosis in HepG2 cells (HepG2 cells [2]; LuG: ref 31): induced apoptotic features | elimination phase of the radiolabeled compound (in words) [3]: more rapidly than that of its aglycone form | effect on cell cycle progression (in words) (HepG2 cells [4]; HepG2): impaired G1 to S progression | change in S phase versus control (HepG2 cells [4]; HepG2, 24 h): no significant changes | decrease of 4N DNA content (G2/M phase) versus control (HepG2 cells [4]; HepG2, 24 h): about 7% | increase of 2N DNA content (G0/G1 phase) versus control (HepG2 cells [4]; HepG2, 24 h): approximately 5% | effect on viability of HepG2 cell line (HepG2 cells [5]): dose-dependent effect | cell cycle effect in HepG2 (HepG2 cells [6]): induced G2/M phase | cytotoxicity on SW480 cells (in words) (SW480 cells): negligible toxicity; also recorded: no inhibitory effects | apoptosis/necrosis of HepG2 cells (in words) (HepG2 cells [7]): non-apoptotic cell death; also recorded: no significant increase | apoptosis/necrosis of HepG2 cells (in words) (HepG2 cells [7]; [8]): did not involve necrotic or apoptotic pathways

O=c1cc(-c2ccc(O)c(O)c2)oc2cc(O)cc(O)c12 [Lu, 3′,4′,5,7-tetrahydroxy flavone]
cytotoxicity on HepG2 cells (in words) (HepG2 cells [1]): less accumulation and cytotoxicity | cytotoxicity on HepG2 cells (in words) (HepG2 cells [1]; listed as luteolin): less effective against HepG2 cells compared to the glycone form | cytotoxicity on normal HUVEC cells (in words) (HUVEC cells): did not demonstrate any cytotoxicity | apoptosis in HepG2 cells (HepG2 cells [2]; luteolin: ref 32): triggers classical mitochondrial apoptosis | cytotoxicity on SW480 cells (in words) (SW480 cells): no inhibitory effects

From article PMC13408522, “The Effect of Glycosylation on Biodistribution and Cytotoxicity of ^99mTc-Radiolabeled Luteolin” (Advanced Pharmaceutical Bulletin, 2025)
